The results in this text go back to patent US8148391B2 (Cephalon, Inc., priority 2006, dated 2012).

Where only a bound is given, the exact number is not on record here.

Assay [1] concerns the target T1, baculovirus-expressed ALK (Homo sapiens, UniProt Q9UM73).
T1 construct: host or cells: baculovirus expression system
In words: ALK Kinase Assay (ELISA-type, time-resolved fluorescence). In kind it is biochemical. The conditions noted are these: 1 μM ATP (Km level); read-out: ALK Activity (ALK Kinase Inhibition, IC50). In outline: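 Substrate coating: phospholipase C-γ, 10 μg/mL in TBS. Kinase step: 30 ng/ml ALK, 15 min, 37° C. Detection and analysis: Eu-N1 PT66 antibody, with IC50 fitted as a sigmoidal variable-slope dose-response curve.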
In general terms: An ELISA detects its analyte on a solid surface through an enzyme-linked reagent.

Assay [2] addresses T2, c-Met (cytoplasmic domain) (Homo sapiens, UniProt P08581).
T2 construct: 10 ng/mL c-Met (cytoplasmic domain, Invitrogen Corporation #PV3143); purchased Invitrogen Corporation PV3143
In words: c-Met Kinase Assay (same methods as for ALK, with modifications). The conditions noted are these: 1 μM ATP (Km level); read-out: cMet Activity (c-Met Kinase Inhibition, IC50). In kind it is biochemical. In outline:
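This plate-based kinase format uses immobilized phospholipase C-γ as substrate, phosphorylated by c-Met cytoplasmic domain (10 ng/mL) at 37° C for 15 minutes.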

T1 sequence (Q9UM73 19-1620): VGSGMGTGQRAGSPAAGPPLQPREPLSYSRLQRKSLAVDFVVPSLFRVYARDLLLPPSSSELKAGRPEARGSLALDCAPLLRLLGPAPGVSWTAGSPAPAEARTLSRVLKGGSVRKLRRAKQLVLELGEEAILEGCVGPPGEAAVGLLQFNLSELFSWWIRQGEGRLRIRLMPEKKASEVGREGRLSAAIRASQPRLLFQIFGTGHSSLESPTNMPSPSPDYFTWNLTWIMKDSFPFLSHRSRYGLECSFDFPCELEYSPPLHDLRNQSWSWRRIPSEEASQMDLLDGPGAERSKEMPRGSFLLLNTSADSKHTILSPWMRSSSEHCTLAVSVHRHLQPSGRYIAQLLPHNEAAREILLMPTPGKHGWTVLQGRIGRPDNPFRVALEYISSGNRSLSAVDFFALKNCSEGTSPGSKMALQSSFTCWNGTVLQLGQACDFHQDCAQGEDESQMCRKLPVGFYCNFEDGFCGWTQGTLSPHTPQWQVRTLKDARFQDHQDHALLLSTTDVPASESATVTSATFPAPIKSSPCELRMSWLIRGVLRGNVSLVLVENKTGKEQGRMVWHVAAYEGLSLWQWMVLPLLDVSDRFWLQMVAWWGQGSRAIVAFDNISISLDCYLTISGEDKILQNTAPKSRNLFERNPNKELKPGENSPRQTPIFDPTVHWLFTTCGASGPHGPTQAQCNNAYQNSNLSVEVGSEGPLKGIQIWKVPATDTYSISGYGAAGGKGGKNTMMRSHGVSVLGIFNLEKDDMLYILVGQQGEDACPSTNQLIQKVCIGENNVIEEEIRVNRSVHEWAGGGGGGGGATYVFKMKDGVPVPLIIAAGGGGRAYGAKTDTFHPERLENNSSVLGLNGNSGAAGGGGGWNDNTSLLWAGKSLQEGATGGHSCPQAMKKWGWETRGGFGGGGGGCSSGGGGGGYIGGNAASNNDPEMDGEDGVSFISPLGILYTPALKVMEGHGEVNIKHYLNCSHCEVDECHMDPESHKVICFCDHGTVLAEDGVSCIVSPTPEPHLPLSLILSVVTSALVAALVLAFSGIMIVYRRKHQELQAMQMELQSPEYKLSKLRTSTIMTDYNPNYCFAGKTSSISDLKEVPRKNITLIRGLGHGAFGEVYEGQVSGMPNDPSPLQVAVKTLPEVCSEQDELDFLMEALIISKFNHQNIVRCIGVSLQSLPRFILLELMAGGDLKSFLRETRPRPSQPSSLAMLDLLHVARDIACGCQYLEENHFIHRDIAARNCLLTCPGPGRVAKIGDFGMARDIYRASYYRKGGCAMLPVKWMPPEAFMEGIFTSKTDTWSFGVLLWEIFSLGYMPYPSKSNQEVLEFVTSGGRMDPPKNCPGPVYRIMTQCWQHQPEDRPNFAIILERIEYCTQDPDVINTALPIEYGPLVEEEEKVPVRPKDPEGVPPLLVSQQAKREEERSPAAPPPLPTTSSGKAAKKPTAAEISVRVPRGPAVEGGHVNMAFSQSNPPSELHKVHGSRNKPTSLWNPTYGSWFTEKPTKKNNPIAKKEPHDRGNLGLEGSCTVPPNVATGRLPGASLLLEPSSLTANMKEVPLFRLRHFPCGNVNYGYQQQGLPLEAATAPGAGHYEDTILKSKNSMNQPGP
T2 sequence (P08581 956-1390 limits assumed): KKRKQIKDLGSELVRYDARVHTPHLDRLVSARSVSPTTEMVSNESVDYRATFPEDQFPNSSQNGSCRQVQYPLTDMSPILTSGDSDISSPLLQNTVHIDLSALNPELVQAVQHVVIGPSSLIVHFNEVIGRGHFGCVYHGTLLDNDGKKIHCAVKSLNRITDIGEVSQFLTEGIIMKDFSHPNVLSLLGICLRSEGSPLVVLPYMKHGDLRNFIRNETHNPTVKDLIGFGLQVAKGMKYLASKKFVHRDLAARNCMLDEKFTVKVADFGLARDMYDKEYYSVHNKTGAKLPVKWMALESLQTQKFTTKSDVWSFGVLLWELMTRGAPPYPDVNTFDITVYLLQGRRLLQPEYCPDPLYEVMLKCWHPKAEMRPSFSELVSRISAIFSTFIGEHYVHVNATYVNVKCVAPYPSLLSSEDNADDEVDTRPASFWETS

As to `COCCN1CCc2ccc(Nc3ncc(Cl)c(Nc4ccccc4-c4ncccc4OC)n3)cc2CC1` [Example 990, 5-Chloro-N*2*-[3-(2-methoxy-ethyl)-2,3,4,5-tetrahydro-1H-benzo[d]azepin-7-yl]-N*4*-[2-(3-methoxy-pyridin-2-yl)-phenyl]-pyrimidine-2,4-diamine], the IC50 – broadly, the concentration that gives 50% inhibition – in assay [1] is below 0.1 µM; in assay [2], 0.1 to 1 µM.

With `CC1(C)CCC(=O)Nc2ccc(Nc3ncc(Cl)c(Nc4ccccc4-c4ncccc4C(F)(F)F)n3)cc21` [Example 991, 7-{5-Chloro-4-[2-(3-trifluoromethyl-pyridin-2-yl)-phenylamino]-pyrimidin-2-ylamino}-5,5-dimethyl-1,3,4,5-tetrahydro-benzo[b]azepin-2-one], the IC50 in assay [1] was 0.1 to 1 µM; in assay [2], above 10 µM.

In the case of `COCCN1CCc2ccc(Nc3ncc(Cl)c(Nc4ccccc4-c4ncccc4C(F)(F)F)n3)cc2CC1` [Example 992, 5-Chloro-N*2*-[3-(2-methoxy-ethyl)-2,3,4,5-tetrahydro-1H-benzo[d]azepin-7-yl]-N*4*-[2-(3-trifluoromethyl-pyridin-2-yl)-phenyl]-pyrimidine-2,4-diamine], the 50% inhibitory concentration (IC50) is below 0.1 µM in assay [1] and 1 to 10 µM in assay [2].

`CC1(C)CCC(=O)Nc2ccc(Nc3ncc(Cl)c(Nc4cccc(-c5cccnc5)c4)n3)cc21` [Example 993, 7-[5-Chloro-4-(3-pyridin-3-yl-phenylamino)-pyrimidin-2-ylamino]-5,5-dimethyl-1,3,4,5-tetrahydro-benzo[b]azepin-2-one]: the results for the IC50 in assay [1] and in assay [2] were 0.1 to 1 µM and 1 to 10 µM, respectively.

With `Cn1ccnc1-c1ccccc1Nc1nc(Nc2ccc3c(c2)CCCC(=O)N3)ncc1Cl` [Example 994, 7-{5-Chloro-4-[2-(1-methyl-1H-imidazol-2-yl)-phenylamino]-pyrimidin-2-ylamino}-1,3,4,5-tetrahydro-benzo[b]azepin-2-one], the IC50 was below 0.1 µM in assay [1] and above 10 µM in assay [2].

Regarding `CN1C(=O)CCCc2cc(Nc3ncc(Cl)c(Nc4ccccc4-c4nccn4C)n3)ccc21` [Example 995, 7-{5-Chloro-4-[2-(1-methyl-1H-imidazol-2-yl)-phenylamino]-pyrimidin-2-ylamino}-1-methyl-1,3,4,5-tetrahydro-benzo[b]azepin-2-one], the half-inhibitory concentration (IC50) in assay [1] was below 0.1 µM; in assay [2], 0.1 to 1 µM.

For `CCN1C(=O)CCCc2cc(Nc3ncc(Cl)c(Nc4ccccc4-c4nccn4C)n3)c(OC)cc21` [Example 996, 7-{5-Chloro-4-[2-(1-methyl-1H-imidazol-2-yl)-phenylamino]-pyrimidin-2-ylamino}-1-ethyl-8-methoxy-1,3,4,5-tetrahydro-benzo[b]azepin-2-one], the IC50 in assay [1] is below 0.1 µM; in assay [2], above 10 µM.

As to `O=C1CCCc2cc(Nc3ncc(Cl)c(Nc4ccccc4-c4cnco4)n3)ccc2N1` [Example 997, 7-[5-Chloro-4-(2-oxazol-5-ylphenylamino)-pyrimidin-2-ylamino]-1,3,4,5-tetrahydro-benzo[b]azepin-2-one], the half-inhibitory concentration (IC50) in assay [1] and in assay [2] was 0.1 to 1 µM throughout.

On to `COc1ccc2c(c1Nc1ncc(Cl)c(Nc3ccccc3-c3nccn3C)n1)NC(=O)CCC2(C)C` [Example 998, 9-{5-Chloro-4-[2-(1-methyl-1H-imidazol-2-yl)-phenylamino]-pyrimidin-2-ylamino}-8-methoxy-5,5-dimethyl-1,3,4,5-tetrahydro-benzo[b]azepin-2-one], for which the IC50 in assay [1] and in assay [2] was above 10 µM throughout.

Turning to `COc1cc2c(cc1Nc1ncc(Cl)c(Nc3ccccc3-c3nccn3C)n1)CCN(CC(=O)N(C)C)CC2` [Example 999, 2-(7-{5-Chloro-4-[2-(1-methyl-1H-imidazol-2-yl)-phenylamino]-pyrimidin-2-ylamino}-8-methoxy-1,2,4,5-tetrahydro-benzo[d]azepin-3-yl)-N,N-dimethyl-acetamide], the IC50 is below 0.1 µM in assay [1] and above 10 µM in assay [2].

On to `COc1cc2c(cc1Nc1ncc(Cl)c(Nc3ccccc3-c3ncccc3C)n1)CCN(CC(=O)N(C)C)CC2` [Example 1000, 2-(7-{5-Chloro-4-[2-(3-methyl-pyridin-2-yl)-phenylamino]-pyrimidin-2-ylamino}-8-methoxy-1,2,4,5-tetrahydro-benzo[d]azepin-3-yl)-N,N-dimethyl-acetamide], for which the results for the IC50 in assay [1] and in assay [2] were below 0.1 µM and above 10 µM, respectively.

With `Cc1ccnc(-c2ccccc2Nc2nc(Nc3ccc4c(c3)C(C)(C)CCC(=O)N4)ncc2Cl)c1` [Example 1001, 7-{5-Chloro-4-[2-(4-methyl-pyridin-2-yl)-phenylamino]-pyrimidin-2-ylamino}-5,5-dimethyl-1,3,4,5-tetrahydro-benzo[b]azepin-2-one], the IC50 in assay [1] is 0.1 to 1 µM; in assay [2], above 10 µM.

As to `Cc1ccnc(-c2ccccc2Nc2nc(Nc3ccc4c(c3)CCCC(=O)N4C)ncc2Cl)c1` [Example 1002, 7-{5-Chloro-4-[2-(4-methyl-pyridin-2-yl)-phenylamino]-pyrimidin-2-ylamino}-1-methyl-1,3,4,5-tetrahydro-benzo[b]azepin-2-one], the 50% inhibitory concentration (IC50) in assay [1] and in assay [2] was 0.1 to 1 µM throughout.

For the compound `Cc1ccc(-c2ccccc2Nc2nc(Nc3ccc4c(c3)C(C)(C)CCC(=O)N4)ncc2Cl)nc1` [Example 1003, 7-{5-Chloro-4-[2-(5-methyl-pyridin-2-yl)-phenylamino]-pyrimidin-2-ylamino}-5,5-dimethyl-1,3,4,5-tetrahydro-benzo[b]azepin-2-one], the values for the IC50 in assay [1] and in assay [2] were 1 to 10 µM and above 10 µM, respectively.

On to `Cc1ccc(-c2ccccc2Nc2nc(Nc3ccc4c(c3)CCCC(=O)N4C)ncc2Cl)nc1` [Example 1004, 7-{5-Chloro-4-[2-(5-methyl-pyridin-2-yl)-phenylamino]-pyrimidin-2-ylamino}-1-methyl-1,3,4,5-tetrahydro-benzo[b]azepin-2-one], for which the concentration for half-maximal inhibition (IC50) in assay [1] and in assay [2] was 1 to 10 µM in each case.

As for `Cn1cnc2c(Nc3nc(Nc4ccc5c(c4)C(C)(C)CCC(=O)N5)ncc3Cl)cccc21` [Example 1005, 7-[5-Chloro-4-(1-methyl-1H-benzoimidazol-4-ylamino)-pyrimidin-2-ylamino]-5,5-dimethyl-1,3,4,5-tetrahydro-benzo[b]azepin-2-one], the IC50 in assay [1] was below 0.1 µM; in assay [2] it was 0.1 to 1 µM.

As to `COCCN1CCc2ccc(Nc3ncc(Cl)c(Nc4cccc5c4ncn5C)n3)cc2CC1` [Example 1006, 5-Chloro-N*2*-[3-(2-methoxy-ethyl)-2,3,4,5-tetrahydro-1H-benzo[d]azepin-7-yl]-N*4*-(1-methyl-1H-benzoimidazol-4-yl)-pyrimidine-2,4-diamine], the half-maximal inhibitory concentration (IC50) in assay [1] was in the range of 0.1 to 1 µM; in assay [2] it was 1 to 10 µM.

Take `CN1C(=O)CCCc2cc(Nc3ncc(Cl)c(Nc4cccc5c4ncn5C)n3)ccc21` [Example 1007, 7-[5-Chloro-4-(1-methyl-1H-benzoimidazol-4-ylamino)-pyrimidin-2-ylamino]-1-methyl-1,3,4,5-tetrahydro-benzo[b]azepin-2-one]: the half-maximal inhibitory concentration (IC50) in assay [1] and in assay [2] was 0.1 to 1 µM throughout.

On to `Cc1cccc(-c2ccccc2Nc2nc(Nc3ccc4c(c3)C(C)(C)CCC(=O)N4)ncc2Cl)n1` [Example 1008, 7-{5-Chloro-4-[2-(6-methyl-pyridin-2-yl)-phenylamino]-pyrimidin-2-ylamino}-5,5-dimethyl-1,3,4,5-tetrahydro-benzo[b]azepin-2-one], for which the IC50 is below 0.1 µM in assay [1] and 1 to 10 µM in assay [2].

As for `COCCN1CCc2ccc(Nc3ncc(Cl)c(Nc4ccccc4-c4cccc(C)n4)n3)cc2CC1` [Example 1009, 5-Chloro-N*2*-[3-(2-methoxy-ethyl)-2,3,4,5-tetrahydro-1H-benzo[d]azepin-7-yl]-N*4*-[2-(6-methyl-pyridin-2-yl)-phenyl]-pyrimidine-2,4-diamine], the concentration for half-maximal inhibition (IC50) was below 0.1 µM in assay [1] and 0.1 to 1 µM in assay [2].

With `CC1(C)CCC(=O)Nc2ccc(Nc3ncc(Cl)c(Nc4ccccc4-c4nc(C(F)(F)F)c[nH]4)n3)cc21` [Example 1010, 7-{5-Chloro-4-[2-(4-trifluoromethyl-1H-imidazol-2-yl)-phenylamino]-pyrimidin-2-ylamino}-5,5-dimethyl-1,3,4,5-tetrahydro-benzo[b]azepin-2-one], the IC50 in assay [1] is 0.1 to 1 µM; in assay [2], 1 to 10 µM.

As to `COCCN1CCc2ccc(Nc3ncc(Cl)c(Nc4ccccc4-c4nc(C(F)(F)F)c[nH]4)n3)cc2CC1` [Example 1011, 5-Chloro-N*2*-[3-(2-methoxy-ethyl)-2,3,4,5-tetrahydro-1H-benzo[d]azepin-7-yl]-N*4*-[2-(4-trifluoromethyl-1H-imidazol-2-yl)-phenyl]-pyrimidine-2,4-diamine], the figures for the half-maximal inhibitory concentration (IC50) in assay [1] and in assay [2] were below 0.1 µM and 0.1 to 1 µM, respectively.

Turning to `O=C1CCCc2cc(Nc3ncc(Cl)c(Nc4ccccc4-c4nc(C(F)(F)F)c[nH]4)n3)ccc2N1` [Example 1012, 7-{5-Chloro-4-[2-(4-trifluoromethyl-1H-imidazol-2-yl)-phenylamino]-pyrimidin-2-ylamino}-1,3,4,5-tetrahydro-benzo[b]azepin-2-one], the IC50 in assay [1] and in assay [2] was 0.1 to 1 µM each time.

In the case of `CN1C(=O)CCCc2cc(Nc3ncc(Cl)c(Nc4ccccc4-c4nc(C(F)(F)F)c[nH]4)n3)ccc21` [Example 1013, 7-{5-Chloro-4-[2-(4-trifluoromethyl-1H-imidazol-2-yl)-phenylamino]-pyrimidin-2-ylamino}-1-methyl-1,3,4,5-tetrahydro-benzo[b]azepin-2-one], the concentration for half-maximal inhibition (IC50) was in the range of 0.1 to 1 µM in assay [1] and 1 to 10 µM in assay [2].
